Read-outs that look alike come from different tables or passages of the source.
Assays:
[1] = test system: ZF4 (fibroblasts) cell line; test: MTS assay (MTS/BCA multiplex), NAD(P)H metabolism; type: cell-based, zebrafish (Danio rerio); settings: Danio rerio, Fibroblast
[2] = test system: ZF4 (fibroblasts) cell line; test: alamarBlue (AB) endpoint of AB/CFDA/NR multiplex, cellular respiration; type: cell-based, zebrafish (Danio rerio); settings: Danio rerio, Fibroblast
[3] = test system: ZFL (hepatocytes) cell line; test: cells; type: cell-based, zebrafish (Danio rerio); settings: Danio rerio, Hepatocyte
[4] = ref Comptox, PubChem or DrugBank; cited from earlier work
ZF4 and ZFL cell lines = test: Cytotoxicity assays, all endpoints, both cell lines (mean/range); type: cell-based, zebrafish (Danio rerio); settings: 48 h, mean of all cytotoxicity endpoints (without LDH) in ZF4 and ZFL
[5] = test system: ZFL (hepatocytes) cell line; test: cells; type: cell-based, zebrafish (Danio rerio); settings: Danio rerio, Hepatocyte; remark: listed apart in the source
[6] = test system: ZFL (hepatocytes) cell line; test: cells; type: cell-based, zebrafish (Danio rerio); settings: Danio rerio, Hepatocyte; remark: listed apart in the source
[7] = test system: ZFL (hepatocytes) cell line; test: cells; type: cell-based, zebrafish (Danio rerio); settings: Danio rerio, Hepatocyte; remark: listed apart in the source
zebrafish embryos [8] = test system: zebrafish embryos; set-up: method as in earlier work; settings: nominal, cited from earlier work
[9] = test system: ZFL (hepatocytes) cell line; test: cells; type: cell-based, zebrafish (Danio rerio); settings: Danio rerio, Hepatocyte; remark: listed apart in the source
[10] = test system: ZF4 (fibroblasts) cell line; test: BCA assay (MTS/BCA multiplex), protein amount; type: cell-based, zebrafish (Danio rerio); settings: Danio rerio, Fibroblast
zebrafish embryos [11] = test: animal or person; type: in vivo, zebrafish (Danio rerio); settings: for EC50: Danio rerio
[12] = test system: ZFL (hepatocytes) cell line; test: cells; type: cell-based, zebrafish (Danio rerio); settings: Danio rerio, Hepatocyte; remark: listed apart in the source
[13] = test system: zebrafish cell lines vs zebrafish embryo; test: Potency ratios IC50;x/EC50;x (cytotoxicity assays vs mFET); set-up: species or system zebrafish (Danio rerio)
[14] = test system: ZF4 (fibroblasts) cell line; test: Neutral red, absorbance (NRa), AB/CFDA/NR multiplex, lysosome stability; type: cell-based, zebrafish (Danio rerio); settings: Danio rerio, Fibroblast
[15] = test system: ZF4 (fibroblasts) cell line; test: CFDA endpoint of AB/CFDA/NR multiplex, membrane stability; type: cell-based, zebrafish (Danio rerio); settings: Danio rerio, Fibroblast
[16] = test system: ZFL (hepatocytes) cell line; test: cells; type: cell-based, zebrafish (Danio rerio); settings: Danio rerio, Hepatocyte; remark: listed apart in the source
[17] = test system: ZF4 (fibroblasts) cell line; test: Neutral red, fluorescence (NRf), AB/CFDA/NR multiplex, lysosome stability; type: cell-based, zebrafish (Danio rerio); settings: Danio rerio, Fibroblast
[18] = test system: ZF4 (fibroblasts) cell line; test: ATP assay (ATP/LDH multiplex), ATP metabolism; type: cell-based, zebrafish (Danio rerio); settings: Danio rerio, Fibroblast

Q: What does the source list for Cc1cc(-n2c(=O)[nH]c(=O)n(C)c2=O)ccc1Oc1ccc(SC(F)(F)F)cc1 [Toltrazuril, toltrazuril]?
A: IC50 ([1]; MTS - ZF4, log10 of IC50, read-out: LogIC50 (converted)): 175 µM; IC50 ([1]; MTS - ZF4, read-out: IC50): 175 µM; IC50 ([1]; ZF4, 48 h exposure, nominal, log10, read-out: logIC50 (log10 IC50;nom) MTS (converted)): 174 µM; IC50 ([1]; ZF4, 48 h exposure, nominal, read-out: IC50;nom MTS): 175 µM; IC50 ([2]; AB - ZF4, log10 of IC50, read-out: LogIC50 (converted)): 97.5 µM; IC50 ([2]; AB - ZF4, read-out: IC50): 97.5 µM; IC50 ([2]; ZF4, 48 h exposure, nominal, log10, read-out: logIC50 (log10 IC50;nom) AB (converted)): 97.7 µM; IC50 ([2]; ZF4, 48 h exposure, nominal, read-out: IC50;nom AB): 97.5 µM; IC50 ([3]; AB - ZFL, log10 of IC50, read-out: LogIC50 (converted)): 69.6 µM; IC50 ([3]; AB - ZFL, read-out: IC50): 69.6 µM; IC50 ([3]; ZFL, 48 h exposure, nominal, log10, read-out: logIC50 (log10 IC50;nom) AB (converted)): 69.2 µM; IC50 ([3]; ZFL, 48 h exposure, nominal, read-out: IC50;nom AB): 69.6 µM; BCF [4]: 14.3; Physiological charge [4]: 0; Water Solubility [4]: insoluble; logKoa [4]: 10.2; logKow [4]: 4.31; pKa (Strongest Acidic) [4]: 6.47; w_solubility (water solubility) [4]: 106 µM; IC50 (ZF4 and ZFL cell lines; Danio rerio, log10, read-out: Mean log IC50nom (converted)): 85.1 µM; Mean log IC50nom (ZF4 and ZFL cell lines; log10, listed as Tol): -4.074 M; IC50 ([5]; ATP - ZFL, log10 of IC50, read-out: LogIC50 (converted)): 20.3 µM; IC50 ([5]; ATP - ZFL, read-out: IC50): 20.3 µM; IC50 ([5]; ZFL, 48 h exposure, nominal, log10, read-out: logIC50 (log10 IC50;nom) ATP (converted)): 20.4 µM; IC50 ([5]; ZFL, 48 h exposure, nominal, read-out: IC50;nom ATP): 20.3 µM; IC50 ([6]; NR-abs - ZFL, log10 of IC50, read-out: LogIC50 (converted)): 84.7 µM; IC50 ([6]; NR-abs - ZFL, read-out: IC50): 84.7 µM; IC50 ([6]; ZFL, 48 h exposure, nominal, log10, read-out: logIC50 (log10 IC50;nom) NRa (converted)): 85.1 µM; IC50 ([6]; ZFL, 48 h exposure, nominal, read-out: IC50;nom NRa): 84.7 µM; IC50 ([7]; CFDA - ZFL, log10 of IC50, read-out: LogIC50 (converted)): 122 µM; IC50 ([7]; CFDA - ZFL, read-out: IC50): 122 µM; IC50 ([7]; ZFL, 48 h exposure, nominal, log10, read-out: logIC50 (log10 IC50;nom) CFDA (converted)): 123 µM; IC50 ([7]; ZFL, 48 h exposure, nominal, read-out: IC50;nom CFDA): 122 µM; EC50 (zebrafish embryos [8]; 144 hpf, converted): 2.59 µM; logEC50 144 hpf (zebrafish embryos [8]; log10): -5.5874 M; IC50 ([9]; BCA - ZFL, log10 of IC50, read-out: LogIC50 (converted)): 294 µM; IC50 ([9]; BCA - ZFL, read-out: IC50): 294 µM; IC50 ([9]; ZFL, 48 h exposure, nominal, log10, read-out: logIC50 (log10 IC50;nom) BCA (converted)): 295 µM; IC50 ([9]; ZFL, 48 h exposure, nominal, read-out: IC50;nom BCA): 294 µM; IC50 ([10]; BCA - ZF4, log10 of IC50, read-out: LogIC50 (converted)): 141 µM; IC50 ([10]; BCA - ZF4, read-out: IC50): 141 µM; IC50 ([10]; ZF4, 48 h exposure, nominal, log10, read-out: logIC50 (log10 IC50;nom) BCA (converted)): 141 µM; IC50 ([10]; ZF4, 48 h exposure, nominal, read-out: IC50;nom BCA): 141 µM; difference in toxicity (EC50;nom) between 48 hpf and 144 hpf (zebrafish embryos [11]; 48 hpf time point less sensitive than 144 hpf): marginally more toxic; log EC50;nom (mFET) (zebrafish embryos [11]; 48 hpf, nominal, log10, listed as Tol): -4.897 M; EC50 (zebrafish embryos [11]; 48 hpf, nominal, log10, read-out: log EC50;nom (mFET) (converted)): 12.6 µM; EC50 (zebrafish embryos [11]; 48 hpf, nominal, read-out: EC50;nom (embryo)): 5.4 µg/mL; EC50 (zebrafish embryos [11]; read-out: EC50 48hpf): 12.7 µM; EC50 (zebrafish embryos [11]; read-out: EC50;nom (mFET)): 12.7 µM; IC50 ([12]; NR-fluo - ZFL, log10 of IC50, read-out: LogIC50 (converted)): 78.7 µM; IC50 ([12]; NR-fluo - ZFL, read-out: IC50): 78.7 µM; IC50 ([12]; ZFL, 48 h exposure, nominal, log10, read-out: logIC50 (log10 IC50;nom) NRf (converted)): 79.4 µM; IC50 ([12]; ZFL, 48 h exposure, nominal, read-out: IC50;nom NRf): 78.7 µM; in vitro toxicity (IC50;free) higher than EC50;nom ([13]; ZF4 NRa endpoint vs embryo): 2 fold; potency ratio IC50;nom/EC50;nom (median) ([13]; median over cytotoxicity endpoints, nominal, 48 h cells / 48 hpf mFET): 6.54; IC50 ([14]; NR-abs - ZF4, log10 of IC50, read-out: LogIC50 (converted)): 49.4 µM; IC50 ([14]; NR-abs - ZF4, read-out: IC50): 49.4 µM; IC50 ([14]; ZF4, 48 h exposure, nominal, log10, read-out: logIC50 (log10 IC50;nom) NRa (converted)): 49 µM; IC50 ([14]; ZF4, 48 h exposure, nominal, read-out: IC50;nom NRa): 49.4 µM; IC50 ([14]; ZF4 cell line, NRa endpoint, nominal, read-out: IC50;nom): 21 µg/mL; IC50 ([15]; CFDA - ZF4, log10 of IC50, read-out: LogIC50 (converted)): 104 µM; IC50 ([15]; CFDA - ZF4, read-out: IC50): 104 µM; IC50 ([15]; ZF4, 48 h exposure, nominal, log10, read-out: logIC50 (log10 IC50;nom) CFDA (converted)): 105 µM; IC50 ([15]; ZF4, 48 h exposure, nominal, read-out: IC50;nom CFDA): 104 µM; IC50 ([16]; MTS - ZFL, log10 of IC50, read-out: LogIC50 (converted)): 62.8 µM; IC50 ([16]; MTS - ZFL, read-out: IC50): 62.8 µM; IC50 ([16]; ZFL, 48 h exposure, nominal, log10, read-out: logIC50 (log10 IC50;nom) MTS (converted)): 63.1 µM; IC50 ([16]; ZFL, 48 h exposure, nominal, read-out: IC50;nom MTS): 62.8 µM; IC50 ([17]; NR-fluo - ZF4, log10 of IC50, read-out: LogIC50 (converted)): 81.3 µM; IC50 ([17]; NR-fluo - ZF4, read-out: IC50): 81.3 µM; IC50 ([17]; ZF4, 48 h exposure, nominal, log10, read-out: logIC50 (log10 IC50;nom) NRf (converted)): 81.3 µM; IC50 ([17]; ZF4, 48 h exposure, nominal, read-out: IC50;nom NRf): 81.3 µM; IC50 ([18]; ATP - ZF4, log10 of IC50, read-out: LogIC50 (converted)): 43.8 µM; IC50 ([18]; ATP - ZF4, read-out: IC50): 43.8 µM; IC50 ([18]; ZF4, 48 h exposure, nominal, log10, read-out: logIC50 (log10 IC50;nom) ATP (converted)): 43.7 µM; IC50 ([18]; ZF4, 48 h exposure, nominal, read-out: IC50;nom ATP): 43.8 µM

Source: article PMC7872314, “Modeling Bioavailable Concentrations in Zebrafish Cell Lines and Embryos Increases the Correlation of Toxicity Potencies across Test Systems” (Environmental Science & Technology, 2020)
